# According to US4659804A, “(Bis-1,7-S-acetamidomethyl-L-cysteine)salmon calcitonin” (Armour Pharmaceutical Company, priority 1984, dated 1987):
# Test system: serum calcium concentration
# Assay: Biological assay of calcitonin analogs in vivo: reduction of serum calcium concentration, 2×2 parallel line assay
# Set-up: species or system Rats
# Details: standard salmon calcitonin used in the assay
# Description: The biological potency of [1,7-Di-Cys(Acm)]salmon calcitonin was determined by comparing the reduction of serum calcium concentration which followed administration by graded doses of [1,7-Di-Cys(Acm)]SCT and synthetic salmon calcitonin standard. Rats were divided into four groups of seven animals, and each group was assigned at random to a dose of standard or test solution. Low and high doses were chosen from the linear portion of the dose-response curve. For the salmon calcitonin standard, the values were 0.7 and 2.1 mcg. peptide/100 g. body weight (BW). This dose approximates 3 and 9 MU/100 g. BW. Peptides were given by subcutaneous injection (0.2 ml/100 g. BW) and blood was withdrawn 1 hour later for serum calcium determination. Sera are processed and analyzed within two hours of collection. […]. Results were analyzed by a 2×2 parallel line assay [Gaddum, J. H., J. Pharm. Pharmacol., 6, 345 (1953)]. The standard salmon calcitonin used was independently determined to contain greater than 4,000 IU/mg. [1,7-Di-Cys(Acm)]SCT assayed at 4250 IU/mg.
smiles,measurement,value
"CC(C)C[C@H](NC(=O)[C@H](CCCCN)NC(=O)CNC(=O)[C@H](CC(C)C)NC(=O)[C@@H](NC(=O)[C@@H]1CSSC[C@H](N)C(=O)N[C@@H](CO)C(=O)N[C@@H](CC(N)=O)C(=O)N[C@@H](CC(C)C)C(=O)N[C@@H](CO)C(=O)N[C@@H]([C@@H](C)O)C(=O)N1)C(C)C)C(=O)N[C@@H](CO)C(=O)N[C@@H](CCC(N)=O)C(=O)N[C@@H](CCC(=O)O)C(=O)N[C@@H](CC(C)C)C(=O)N[C@@H](Cc1c[nH]cn1)C(=O)N[C@@H](CCCCN)C(=O)N[C@@H](CC(C)C)C(=O)N[C@@H](CCC(N)=O)C(=O)N[C@H](C(=O)N[C@@H](Cc1ccc(O)cc1)C(=O)N1CCC[C@H]1C(=O)N[C@@H](CCCNC(=N)N)C(=O)N[C@H](C(=O)N[C@@H](CC(N)=O)C(=O)N[C@H](C(=O)NCC(=O)N[C@@H](CO)C(=O)NCC(=O)N[C@H](C(=O)N1CCC[C@H]1C(N)=O)[C@@H](C)O)[C@@H](C)O)[C@@H](C)O)[C@@H](C)O [standard salmon calcitonin, Salmon calcitonin]","biological potency of the standard, independently determined","greater than 4,000 IU/mg"
